The text below walks through data of paper PMC11874377, “Fungal-derived methyldeoxaphomins target Plasmodium falciparum segregation through the inhibition of PfActin1” (Proceedings of the National Academy of Sciences of the …, 2025).

Values joined by “and” are separate entries in the source; they are usually repeats but may differ in a detail not shown here. Equal entries are not always repeated. Where two headings read alike, the source gives them in different places.

The subject of data set [1] is P. falciparum chloroquine-sensitive line 3D7. In words: SYBR Green I-based antiplasmodial assay, asexual blood stage, 3D7. In kind it is cell-based, Plasmodium falciparum. The method, then:
(§1) The antiplasmodial activity of these analogs was assessed in P. falciparum asexual blood stage using a SYBR Green I-based assay. Compounds were tested in both the multidrug resistant line Dd2, and the chloroquine-sensitive line 3D7, to probe any potential for preexisting resistance. […] These methyldeoxaphomin analogs were also cross-screened for cytotoxicity in the human cell line HepG2 to determine their selectivity for the Plasmodium parasite. […] This effect was maintained with analog NPDG-F where both R1 and R2 were substituted with OH groups. […] In addition, the hydroxyl group at carbon 7 seems to be critical for function as a drastic loss of potency was found in NPDG-D as compared to B and C. […]
Plasmodium blood stage culture
Parasite culture in the Chakrabarti lab was maintained following a modified Trager and Jensen protocol (Trager & Jensen, 1976) as previously described (Lee et al., 2021) with RPMI 1640 with 25 mM HEPES pH 7.4, 26 mM NaHCO3, 15 mg/L hypoxanthine, 0.5% Albumax II, 25 mg/L gentamycin, and 2% dextrose. Parasites were grown with human A+ erythrocytes obtained from Florida OneBlood. Cultures were kept in an incubator with 5% […]
Antiplasmodial activity screening
SYBR Green I-based fluorescence assay was performed as previously described (Lee et al., 2021) following protocols by Smilkstein et. al. (Smilkstein et al., 2004). Asynchronous Dd2 parasites were added to serially diluted compounds and incubated for 72 h at 5% CO2, 95% air at 37°C. Plates were then frozen at -80°C, thawed, and incubated for one hour with 1x SYBR Green I in a lysis buffer (20 mM Tris-HCL, 0.08% saponin, 5 mM EDTA, and 0.8% Triton X-100). Fluorescence was then read on a Synergy Neo2 multimode reader (BioTek Winsooki, VT). […]

Data set [2] relates to Dd2-Pol δ parent line. In words: Resistant parasite phenotyping and cross resistance, SYBR green I EC50 assay, parent line. The settings on record: Plasmodium falciparum; strain Dd2-Pol δ -parent; read-out: EC50 (mean ± SEM). In kind it is cell-based, Plasmodium falciparum. As for the experimental part:
Cloning by limiting dilution was then performed to isolate individual lines from the bulk population. Due to the multiple mutations identified in the first biological replicate, we isolated four clones from this bulk culture as compared to two clones each from the second and third replicates. These clones were phenotyped via a SYBR green I-based dose–response assay (Table 2 and Fig. 2B). […] The DNA of these clones was then extracted and subjected to whole-genome sequencing.
Resistant parasite phenotyping and cross resistance measurement
The EC50 assay was performed at 1% parasitemia, 1% hematocrit with SYBR green I in 96-well plates. The highest final concentration of the methyldeoxaphomin NPDG-F was set at 100 μM. Briefly, the compound was subjected to a 3-fold serial dilution with ten dilution points. Three technical replicates were set up at each dilution point. The Dd2-Pol δ parent line and the resistant parasites at 2% hematocrit and 1% parasitemia were added to the drug media at 1:1 ratio. The plate was incubated at 37°C for 72 hours in a chamber filled with a hypoxic gas mixture (3% oxygen, 5% carbon dioxide, and 92% nitrogen). After incubation, the cells were lysis with lysis buffer (20 mM Tris-HCL, 0.08% saponin, 5 mM EDTA, and 0.8% Triton X-100) containing SYBR green I (10,000X, Thermo Fisher, cat # S7563) overnight. Fluorescence was measured at 485nm excitation and 530nm emission using a PHERAstar FSX plate reader (BMG Labtech, Germany). Dose response curves were graphed with Prism 9 Version 9.5.1.
3D structural analysis of the mutations and docking studies
The crystal structure of PfActin1 with accession number 6TU4 (resolution 2.60 Ang) (Vahokoski et al., 2022) was obtained from the Protein Data Bank (PDB). This structure of PfActin1 contains ligands Jasplakinolide and ADP with a coordinating magnesium ion.
Only chain A was used for the docking experiment. […] Schrodinger maestro software (Schrödinger, LLC) was used to build NPDG-F with the proper stereochemistry using the x-ray structure determined for analog NPDG-A (vide supra). […]

Data set [3] has as its system Dd2. In words: Rate of killing assay by flow cytometry. In kind it is cell-based, Plasmodium falciparum. To be noted: 10 × EC50 for 12, 24, or 48 h. The method, then:
After a 24 h lag phase, only 10^0.64 parasites are killed within the first replication cycle (48 h). […] We also examined the in vitro killing rate in Dd2 through flow cytometric analysis.
Following the previously described protocol (Collins et al., 2021), compound or vehicle control was added to Dd2 culture in the majority ring stage and incubated for either 12, 24, or 48 h prior to compound removal. Samples were then taken at the time of compound removal, and every 24 h for 6 days for flow analysis with SYBR Green I and Mitotracker Deep red FM. Analysis was performed in Flowjo version 10 with gating using DHA, vehicle, no mitotracker, no staining, and uninfected RBC controls. Cells designated as SYBR positive and mitotracker positive were gated as “viable parasites” and graphed using Graphpad Prism version 10. […]
(Flow cytometry measures light scatter and fluorescence of single cells or particles in a stream.)

For data set [4], the system named is human HepG2 hepatoma cells. In words: cells. It is filed as cell-based. The settings on record: for EC50: Homo sapiens. The method, then:
as §1
Cytotoxicity was assessed using an MTS (3-(4,5-Dimethylthiazol-2-yl)-5-(3-carboxymethoxyphenyl)-2-(4-sulfophenyl)-2H-tetrazolium) absorbance assay with human HepG2 hepatoma cells. Cells were maintained in MEM supplemented with 10%FBS, 1% Antibiotic/Antimycotic, 1 mM sodium pyruvate, and 0.15% sodium bicarbonate in a 5 % CO2, 95% air environment at 37°C. For the assay cells were seeded at a density of 2,250 cells per well on 384-well microtiter plates 24 h prior to compound addition. Following a 48-h incubation with compounds, MTS solution was added to wells and absorbance was read after 2-4 h on a Synergy Neo2 multimode reader (BioTek Winsooki, VT). Compound dose response curves and EC50 determination was performed using CDD Vault normalized to 5% triton and vehicle controls. […]

As to `C=C1C(C)C2C(Cc3ccccc3)NC(=O)C23C(=O)C=CC(O)C(O)C(C)CC(C)CC=CC3C1O` (stereo not drawn) [Methyldeoxaphomin NPDG-F], the EC50 (in general, the concentration needed to bring the measured effect to its halfway point) was 290 nM in data set [1] (Plasmodium falciparum, 3D7, abstract, read-out: EC50 in 3D7); 290 ± 30 nM in data set [1] (Plasmodium falciparum, 3D7, average ± SEM of three replicates, read-out: 3D7: Average EC50); 230 nM in data set [1] (Plasmodium falciparum, 3D7, individual replicates, read-out: 3D7: EC50); 290 ± 30 nM in data set [1] (Plasmodium falciparum, 3D7, means from triplicate experiments ± SEM, read-out: 3D7 EC50); 310 nM and 330 nM in data set [1] (individual replicates, read-out: 3D7: EC50); 3430 nM in data set [2]. The EC50 in data set [4] (HepG2, 48 h, means from triplicate experiments ± SEM, 48-h incubation, read-out: HepG2 EC50) was above 25000 nM; in data set [4] (HepG2, average ± SEM of three replicates, read-out: HepG2: Average EC50) it was above 25000 nM; in data set [4] (HepG2, individual replicates, read-out: HepG2: EC50), above 25000 nM. Besides, the “in vitro killing rate phenotype” value in data set [3] was “delayed inhibition phenotype and a cytocidal killing profile”. Moreover, the “cytotoxicity in HepG2 at the highest concentration tested” value in data set [4] (25 µM) is on record as “no signs of cytotoxicity”. Further, the “Selectivity Index (SI)” value in data set [4] (HepG2 EC50/(mean of Dd2 EC50, 3D7 EC50)) is on record as above 60.
